# Assay results reported in patent publication US20180360090A1, “NUTRITIONAL COMPOSITIONS AND INFANT FORMULAS TO PROMOTE MYELINATION IN THE BRAIN” (NESTEC S.A., priority 2015, published 2018).
# Test system: brain myelination (myelin water fraction)
# Experiment: Cross-sectional correlation analysis (GLM) of infant formula nutrient composition against brain myelination, measured as MWF by mcDESPOT MRI
# Format: in vivo, human
# Conditions: children up to 5 years fed different infant formulas during infancy; voxel-wise correlations, p<0.05 corrected
# Protocol: MRI brain scans of infants and children between 0 and 5 years were acquired using a white matter imaging technique. This technique provides a quantitative measure, the Myelin Water Fraction (MWF), which is a surrogate marker of myelin content. When mapped as a function of time across early childhood, myelination trajectories can be generated.
# Infant formula composition: six infant formulas fed to infants participating in study were analyzed for their composition/level of myelin-relevant nutrients.
# Infants included in this study were drawn from a larger longitudinal study of normal brain and behavioral development: the Brown university Assessment of Myelination and Behavior Across Maturation (BAMBAM). To focus on neurotypical development, children with known potential risk factors for learning, neurologic, or psychiatric disorders were specifically excluded during recruitment and enrollment. Thus, children with in utero alcohol or illicit substance exposure, premature (<37 weeks gestation) or multiple birth, fetal ultrasound abnormalities, complicated pregnancy (e.g., preeclampsia), APGAR scores <8, NICU admission, neurological disorder (e.g., head injury, epilepsy), psychiatric or developmental disorders in the infant, parents or siblings (including maternal depression requiring medication) were excluded. Ongoing screenings, such as the MCAT for autism, or CBCL for behavioral problems, were further used to remove enrolled children with clinically concerning behaviors or overt medical conditions (such as autism spectrum disorders).
# A combination of retrospective and prospective data were acquired from parents via detailed medical histories and parental interview on type of infant formula used, percentage of breastfeeding to formula feeding, and length of exclusive breastfeeding. This information was updated at each study visit, which occurred approximately every 6 months for children under 2 years, and yearly for older children. Using this information, children were categorized into one of 2 groups: #1. Exclusively formula-fed; and #2. Exclusively breastfed for at least 90 days (3 months). Children who were fed a combination of breastmilk and formula within 3 months were excluded from our analysis. Infants within the exclusively formula-fed group were further sub-divided based on parental reports of the main infant formula used throughout the first 3 months. Main formula was defined as that given 90% of the time or more (in the case were parents used an alternate brand during vacation, for example).
# Using these criteria, 94 exclusively formula-fed infants and young children were selected into group #1. These included 13 children who received formula #2; 28 who received formula #5; 8 who received formula #3; 39 who received formula #4; 5 who received formula #1 and 1 who received formula #6. A sample of 52 exclusively breast-fed infants were also selected and matched to the over formula-fed group with regards to mean age, gestation duration, birth weight, male:female ratio, ethnicity ratio, maternal education, family size, and number of languages spoken in the home (in addition to English).
# Each infant was scanned using the mcDESPOT (multicomponent Driven Equilibrium Single Pulse Observation of T1 and T2) white matter imaging technique Deoni et al. (Magn. Reson. Med. 2008, 60:1372-1387), which provides a quantitative measure of the myelin water fraction (MWF) at each imaging point throughout the brain. All infants were scanned during natural (i.e. non-sedated) sleep using acoustically-muffled mcDESPOT imaging protocols. Total imaging times ranged from 19 minutes for the youngest toddlers to 24 minutes for the older 4 year-old children.
# All data were acquired on a Siemens 3T Tim Trio scanner equipped with a 12 channel head RF array.
row,Compound,nutritional drivers for myelination (final general linear model)
1,sphingomyelin,identified drivers
2,Zinc,identified drivers
3,Iron,identified drivers
4,Vitamin B12,identified drivers
5,[Ca] [Calcium],identified drivers
6,C[N+](C)(C)CCO [Choline],identified drivers
7,[P] [Phosphorus],identified drivers
8,[Mg] [Magnesium],identified drivers

# Same assay, conditions: children up to 5 years fed different infant formulas; in particular in the visual cortex
row,Compound,association with myelination (myelin water fraction) over time in the brain
1,"CCCCC/C=C\C/C=C\C/C=C\C/C=C\CCCC(=O)O [ARA, arachidonic acid]",significant association with myelination
